Where a name gives a salt, the structure may show the parent alone.
These compounds were tested against T1, h P2X3 (Homo sapiens, UniProt P56373) (assay: In vitro electrophysiology assay for P2X3 (automated whole-cell patch clamp, Sophion Qube)). Conditions: Table 6; range of activity; inhibition of P2X3 current, agonist α,β-MeATP (800 nM).
T1 sequence (P56373 1-397): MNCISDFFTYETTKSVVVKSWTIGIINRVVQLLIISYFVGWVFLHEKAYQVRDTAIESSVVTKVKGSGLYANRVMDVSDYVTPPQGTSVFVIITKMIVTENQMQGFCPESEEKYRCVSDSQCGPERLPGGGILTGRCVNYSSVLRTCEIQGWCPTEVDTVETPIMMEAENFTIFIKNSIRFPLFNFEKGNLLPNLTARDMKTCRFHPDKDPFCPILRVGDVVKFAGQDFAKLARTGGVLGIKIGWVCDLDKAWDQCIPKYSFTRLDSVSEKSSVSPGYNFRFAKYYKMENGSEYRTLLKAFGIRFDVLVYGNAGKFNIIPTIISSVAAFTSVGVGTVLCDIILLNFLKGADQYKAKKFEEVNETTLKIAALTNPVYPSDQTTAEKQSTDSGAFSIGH
Format: cell-based
Description: Pharmacological Activity of the Compounds of the Invention In Vitro Electrophysiology Assay for P2X3
(§1) Cells expressing P2X3 receptors were grown according to standard practice and maintained at 37° C. in a 5% humidified CO2 atmosphere. The cells were seeded into T175 flask 2 days prior to the day of the assay and dissociated from the flasks using TrypLE when grown to confluence of 80-90%. The dissociated cells were resuspended in serum free media at a cell density of 3×10^6 cells/ml and loaded onto the Sophion Qube automated patch-clamp system. The extracellular assay buffer contained 145 mM NaCl, 4 mM KCl, 2 mM CaCl2), 1 mM MgCl2, 10 mM HEPES, and 10 mM glucose at pH 7.4. The intracellular assay solution contained 140 mM CsF, 10 mM NaCl, 10 mM EGTA, 10 mM HEPES at pH 7.2. Agonist stock solutions were prepared in H2O and diluted in bath solution prior to use. All antagonists were prepared as 10 mM stock solutions in DMSO and diluted in bath solution prior to use. All experiments were performed under the whole-cell patch clamp configuration at room temperature with 384 individual cells being voltage clamped at −60 mV simultaneously on the Sophion Qube instrument. Two baseline responses were established with the application of α,β-MeATP (800 nM), with the subsequent agonist applications being washed out using extracellular assay buffer containing 0.5 U/ml apyrase. Following the second agonist application, antagonist was incubated in the absence of α,β-MeATP for 10 minutes. After antagonist preincubation, 800 nM α,β-MeATP and antagonist were co-administered to determine the inhibitory effect of the antagonist. One concentration of an antagonist was assessed against a single cell, with different concentrations of the antagonist applied to other cells on the 384 recording substrate. The control P2X3 current amplitude was taken from the peak current amplitude from the second agonist response prior to preincubation with antagonist. The peak P2X3 current amplitude in the presence of antagonist was used to calculate the inhibitory effect at each concentration of the antagonist according to the following equation: […]
(§2) Concentration-response curves were constructed from ten different concentrations with each concentration of antagonist tested on at least two individual cells. The concentration of the antagonist to inhibit P2X3 current by 50% (IC50) was determined by fitting the data with the following equation: […]
(§3) Where ‘a’ is minimum response, ‘b’ is maximum response, ‘c’ is IC50 and ‘d’ is Hill slope.
The results for individual compounds are provided below in Table 6 and are expressed as range of activity.
The activity of the comparative examples A and B have been tested in the in vitro Electrophysiology Assay for P2X3 as described above.

| Compound | IC50 |
| --- | --- |
| COc1cc(-n2nccc2C)cc2c(N[C@H](C)c3ccc(C)nn3)ncnc12 [Example 102, (R)-8-methoxy-6-(5-methyl-1H-pyrazol-1-yl)-N-(1-(6-methylpyridazin-3-yl)ethyl)quinazolin-4-amine] | 3160 to 31600 nM |
| COc1cc(-n2ccc(C)n2)cc2c(N[C@H](C)c3ccc(C)nn3)ncnc12 [Example 103, (R)-8-methoxy-6-(3-methyl-1H-pyrazol-1-yl)-N-(1-(6-methylpyridazin-3-yl)ethyl)quinazolin-4-amine] | 316 to 3160 nM |
| COc1cc(-n2cc(Cl)cn2)cc2c(N[C@H](C)c3cnc(C(F)(F)F)nc3)ncnc12 [Example 104, (R)-6-(4-chloro-1H-pyrazol-1-yl)-8-methoxy-N-(1-(2-(trifluoromethyl)pyrimidin-5-yl)ethyl)quinazolin-4-amine] | < 316 nM |
| COc1cc(-c2ccn(C)n2)cc2c(NC(C)c3nnc(C)o3)ncnc12 (stereo not drawn) [Example 105] | 316 to 3160 nM |
| COc1cc(-c2ncc(C)s2)cc2c(NC(C)c3nnc(C)s3)ncnc12 (stereo not drawn) [Example 106, 8-methoxy-N-(1-(5-methyl-1,3,4-thiadiazol-2-yl)ethyl)-6-(5-methylthiazol-2-yl)quinazolin-4-amine] | < 316 nM |
| COc1cc(-c2ncc(F)cn2)cc2c(NC(C)c3nnc(C)o3)ncnc12 (stereo not drawn) [Example 110, 6-(5-fluoropyrimidin-2-yl)-8-methoxy-N-(1-(5-methyl-1,3,4-oxadiazol-2-yl)ethyl)quinazolin-4-amine] | 316 to 3160 nM |
| COc1cc(-c2ncc(C)s2)cc2c(NCc3nnc(C)s3)ncnc12 [Example 114, 8-methoxy-N-((5-methyl-1,3,4-thiadiazol-2-yl)methyl)-6-(5-methylthiazol-2-yl)quinazolin-4-amine] | < 316 nM |
| COc1cc(-c2ncc(C)s2)cc2c(NCc3ccn(C)c(=O)c3)ncnc12 [Example 115, 4-(((8-methoxy-6-(5-methylthiazol-2-yl)quinazolin-4-yl)amino)methyl)-1-methylpyridin-2(1H)-one] | < 316 nM |
| COc1cc(-c2ncc(C)s2)cc2c(NCc3ncc(F)cc3F)ncnc12 [Example 118, N-((3,5-difluoropyridin-2-yl)methyl)-8-methoxy-6-(5-methylthiazol-2-yl)quinazolin-4-amine] | < 316 nM |
| COc1cc(-c2ncc(C)s2)cc2c(NCc3ccc(F)cn3)ncnc12 [Example 119, N-((5-fluoropyridin-2-yl)methyl)-8-methoxy-6-(5-methylthiazol-2-yl)quinazolin-4-amine] | < 316 nM |
| COc1cc(-c2ccc(F)cn2)cc2c(NCc3noc(C)n3)ncnc12 [Example 132, 6-(5-Fluoropyridin-2-yl)-8-methoxy-N-((5-methyl-1,2,4-oxadiazol-3-yl)methyl)quinazolin-4-amine] | 316 to 3160 nM |
| COc1cc(-c2ccc(F)cn2)cc2c(NCc3nc(C)no3)ncnc12 [Example 133, 6-(5-fluoropyridin-2-yl)-8-methoxy-N-((3-methyl-1,2,4-oxadiazol-5-yl)methyl)quinazolin-4-amine] | 316 to 3160 nM |
| COc1cc(-c2ccc(F)cn2)cc2c(NCc3nnc(C)o3)ncnc12 [Example 134, 6-(5-fluoropyridin-2-yl)-8-methoxy-N-((5-methyl-1,3,4-oxadiazol-2-yl)methyl)quinazolin-4-amine] | 316 to 3160 nM |
| COc1cc(-c2ccc(F)cn2)cc2c(NCc3cc(C)no3)ncnc12 [Example 135, 6-(5-fluoropyridin-2-yl)-8-methoxy-N-((3-methylisoxazol-5-yl)methyl)quinazolin-4-amine] | 316 to 3160 nM |
| COc1cc(-c2ccc(F)cn2)cc2c(NCc3cc(C)on3)ncnc12 [Example 138, 6-(5-fluoro-2-pyridyl)-8-methoxy-N-[(5-methylisoxazol-3-yl)methyl]quinazolin-4-amine] | 316 to 3160 nM |
| COc1cc(-c2ccc(C)cn2)cc2c(NCc3cc(C)on3)ncnc12 [Example 139, 8-methoxy-N-[(5-methylisoxazol-3-yl)methyl]-6-(5-methyl-2-pyridyl)quinazolin-4-amine] | < 316 nM |
| COc1cc(-c2ccc(F)cn2)cc2c(NCc3ccn(C)n3)ncnc12 [Example 140, 6-(5-fluoro-2-pyridyl)-8-methoxy-N-[(1-methylpyrazol-3-yl)methyl]quinazolin-4-amine] | 316 to 3160 nM |
| COc1cc(-c2ccc(C)cn2)cc2c(NCc3ccn(C)n3)ncnc12 [Example 141, 8-methoxy-N-[(1-methylpyrazol-3-yl)methyl]-6-(5-methyl-2-pyridyl)quinazolin-4-amine] | 316 to 3160 nM |
| COc1cc(-c2ccc(F)cn2)cc2c(NCc3ccn(C)c(=O)c3)ncnc12 [Example 147, 4-(((6-(5-fluoropyridin-2-yl)-8-methoxyquinazolin-4-yl)amino)methyl)-1-methylpyridin-2(1H)-one] | 316 to 3160 nM |
| COc1cc(-c2ccc(F)cn2)cc2c(NCc3cc[nH]c(=O)c3)ncnc12 [Example 148, 4-(((6-(5-fluoropyridin-2-yl)-8-methoxyquinazolin-4-yl)amino)methyl)pyridin-2(1H)-one] | 316 to 3160 nM |
| COc1cc(-c2ncc(C)cn2)cc2c(NCc3nc(C)no3)ncnc12 [Example 156, 8-Methoxy-N-((3-methyl-1,2,4-oxadiazol-5-yl)methyl)-6-(5-methylpyrimidin-2-yl)quinazolin-4-amine] | 316 to 3160 nM |
| COc1cc(-c2ccc(F)cn2)cc2c(N[C@H](C)c3ccn(C)n3)ncnc12 [Example 158, 6-(5-fluoro-2-pyridyl)-8-methoxy-N-[(1R)-1-(1-methylpyrazol-3-yl)ethyl]quinazolin-4-amine] | 316 to 3160 nM |
| COc1cc(-c2ncc(C)cn2)cc2c(NCC(=O)N3CCOCC3)ncnc12 [Example 160, 2-((8-methoxy-6-(5-methylpyrimidin-2-yl)quinazolin-4-yl)amino)-1-morpholinoethan-1-one] | 3160 to 31600 nM |
| COc1cc(-c2ccc(F)cc2)cc2c(NCc3ccc(F)cn3)ncnc12 [Example 161, 6-(4-Fluorophenyl)-N-[(5-fluoro-2-pyridyl)methyl]-8-methoxy-quinazolin-4-amine] | 316 to 3160 nM |
| COc1cc(-c2ccc(F)cc2)cc2c(N[C@@H](C)c3cnc(C(F)(F)F)nc3)ncnc12 [Example 185, 6-(4-fluorophenyl)-8-methoxy-N-[(1S)-1-[2-(trifluoromethyl)pyrimidin-5-yl]ethyl]quinazolin-4-amine formate] | < 316 nM |
| COc1cc(C2=CCOCC2)cc2c(NCc3ccc(C)nn3)ncnc12 [Example 188, 6-(3,6-Dihydro-2H-pyran-4-yl)-8-methoxy-N-((6-methylpyridazin-3-yl)methyl)quinazolin-4-amine] | 3160 to 31600 nM |

These compounds were tested against T2, h P2X2/3 (Homo sapiens, UniProt P56373+Q9UBL9) (assay: In vitro electrophysiology assay for P2X2/3 (same protocol, 10 μM ATP as agonist)). Conditions: Table 7, range of activity.
T2 sequence (P56373 1-397): T1 sequence (P56373 1-397)
T2 sequence (Q9UBL9 1-471): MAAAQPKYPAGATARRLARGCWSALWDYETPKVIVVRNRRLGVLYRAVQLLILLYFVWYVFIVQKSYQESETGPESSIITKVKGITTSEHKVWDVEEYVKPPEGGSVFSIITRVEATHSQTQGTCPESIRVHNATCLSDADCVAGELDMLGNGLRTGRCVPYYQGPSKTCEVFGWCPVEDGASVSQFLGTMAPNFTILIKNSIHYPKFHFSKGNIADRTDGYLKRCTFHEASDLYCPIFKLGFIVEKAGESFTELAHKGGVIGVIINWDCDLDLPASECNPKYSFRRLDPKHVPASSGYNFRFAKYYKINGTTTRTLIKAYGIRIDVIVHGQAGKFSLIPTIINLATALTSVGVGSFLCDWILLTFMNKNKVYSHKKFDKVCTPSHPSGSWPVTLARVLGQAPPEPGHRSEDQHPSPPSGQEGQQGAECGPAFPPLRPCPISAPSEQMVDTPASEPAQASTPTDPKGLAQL
Format: cell-based
Description: as §1, §2, §3
Representative compound of the present invention have been also tested for P2X2/3 receptor.
The same assay protocol was used for the P2X2/3 assay as the P2X3 assay with two modifications: 1) 10 μM ATP was used as the agonist; and 2) the mean current amplitude was measured seven seconds after the application of agonist.

| Compound | IC50 |
| --- | --- |
| CNS(=O)(=O)c1cc(-c2ccc(F)cc2)cc2c(N[C@H](C)c3ccc(C)nn3)ncnc12 [Example 19, (R)-6-(4-fluorophenyl)-N-methyl-4-((1-(6-methylpyridazin-3-yl)ethyl)amino)quinazoline-8-sulfonamide] | 316 to 3160 nM |

From patent US12466820B2, “Amino quinazoline derivatives as P2X3 inhibitors” (CHIESI FARMACEUTICI S.p.A., priority 2019, dated 2025)
